From patent US11524963B2, “Substituted pyrazolo[3,4-d]pyrimidines as RET kinase inhibitors” (Array Biopharma Inc., priority 2018, dated 2022)
Positions count from the first letter of the chain named.

How the values were obtained:
RET kinase M918T = RET kinase M918T (Homo sapiens, UniProt P07949, M918T); assay: RET Enzyme Assay (HTRF KinEASE-TK), M918T; type: biochemical
[1] = biological target: T1, HEK-293 cells expressing a Kif5b-RET fusion protein (Homo sapiens, UniProt P07949); assay: RET Cell Assay (phospho-RET Tyr1062); type: cell-based; conditions: 1 hour with compound, phospho-RET(Tyr1062) normalized to GAPDH, read-out: KIF5B-RET pTYR1062 Cell IC50
T1 construct: expressed in transfected cells; host or cells: HEK-293; the other entry of the earlier key: KIF5B (P33176, Kinesin-1 heavy chain)
T1 sequence (P07949 713-1063 limits assumed): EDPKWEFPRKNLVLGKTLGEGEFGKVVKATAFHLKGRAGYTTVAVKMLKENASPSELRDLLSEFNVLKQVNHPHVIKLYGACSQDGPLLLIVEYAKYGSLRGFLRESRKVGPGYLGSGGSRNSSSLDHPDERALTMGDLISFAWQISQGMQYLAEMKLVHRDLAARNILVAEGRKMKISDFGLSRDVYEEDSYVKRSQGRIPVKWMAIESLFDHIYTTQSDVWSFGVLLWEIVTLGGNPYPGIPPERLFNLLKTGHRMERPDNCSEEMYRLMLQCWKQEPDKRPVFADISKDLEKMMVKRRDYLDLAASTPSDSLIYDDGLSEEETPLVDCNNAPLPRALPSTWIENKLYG
Experimental: (§1) The cellular potency of compounds inhibiting RET kinase were determined in HEK-293 cells expressing a Kif5b-RET fusion protein. Briefly, HEK-293 cells expressing a Kif5b-RET fusion protein were plated at 50K cells/well in 96 well poly-D-Lysine coated plates the day prior to the assay. The cells were incubated for 1 hour with test compound in DMEM (Dulbecco's Modified Eagle Medium) at a final DMSO concentration of 0.5%. […] After 1 hour the media was removed, the cells were fixed with 3.8% formaldehyde for 20 min, washed with PBS, and permeabilized for 10 min with 100% methanol. […] All antibodies were diluted in LI-COR Block containing 0.05% Tween. The plates were washed with PBS-0.05% Tween20, 100 μL PBS is added to each well, and the plates were read on a LI-COR Aerius fluorescent plate reader. The phospho-RET signal was normalized to the GAPDH signal. 100 POC (percent of control) was determined using no test compounds and 0 POC was determined using 1 μM of a control inhibitor. The POC values were fit to a 4 parameter logistic curve. The IC50 value is the point where the curve crosses 50 POC.

RET kinase V804M = RET kinase V804M (Homo sapiens, UniProt P07949, V804M); assay: RET Enzyme Assay (HTRF KinEASE-TK), V804M; type: biochemical
Chain of RET kinase V804M (P07949 29-1114 V804M): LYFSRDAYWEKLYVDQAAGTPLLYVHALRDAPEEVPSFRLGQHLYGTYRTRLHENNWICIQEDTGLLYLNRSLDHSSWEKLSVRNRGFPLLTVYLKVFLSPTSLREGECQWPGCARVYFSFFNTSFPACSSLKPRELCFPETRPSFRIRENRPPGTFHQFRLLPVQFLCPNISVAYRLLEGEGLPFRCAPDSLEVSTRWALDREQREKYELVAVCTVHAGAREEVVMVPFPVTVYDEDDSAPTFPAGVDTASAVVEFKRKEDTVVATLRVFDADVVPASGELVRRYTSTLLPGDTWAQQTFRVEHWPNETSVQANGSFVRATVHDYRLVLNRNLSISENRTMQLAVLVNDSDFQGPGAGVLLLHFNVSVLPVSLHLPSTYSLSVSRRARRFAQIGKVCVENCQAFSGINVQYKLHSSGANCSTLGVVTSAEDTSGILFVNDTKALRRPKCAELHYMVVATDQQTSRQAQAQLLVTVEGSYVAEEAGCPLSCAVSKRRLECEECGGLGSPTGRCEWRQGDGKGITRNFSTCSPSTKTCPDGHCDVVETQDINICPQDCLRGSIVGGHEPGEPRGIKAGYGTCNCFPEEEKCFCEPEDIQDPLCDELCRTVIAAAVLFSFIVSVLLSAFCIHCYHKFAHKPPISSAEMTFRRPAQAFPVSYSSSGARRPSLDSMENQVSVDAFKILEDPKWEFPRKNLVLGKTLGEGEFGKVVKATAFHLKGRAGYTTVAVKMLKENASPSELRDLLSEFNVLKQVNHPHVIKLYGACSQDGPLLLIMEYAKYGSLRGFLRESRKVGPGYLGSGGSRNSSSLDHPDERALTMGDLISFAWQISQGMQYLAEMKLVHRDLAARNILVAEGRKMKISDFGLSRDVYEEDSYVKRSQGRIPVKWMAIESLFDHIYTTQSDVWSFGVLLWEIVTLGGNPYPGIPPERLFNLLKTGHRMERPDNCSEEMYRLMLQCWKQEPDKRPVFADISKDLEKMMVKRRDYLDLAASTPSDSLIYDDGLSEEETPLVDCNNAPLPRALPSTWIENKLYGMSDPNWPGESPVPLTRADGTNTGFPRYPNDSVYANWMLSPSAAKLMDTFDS

[2] = biological target: T2, HEK-293 cells expressing a G810R mutant RET Kif5b-RET fusion protein (Homo sapiens, UniProt P07949, G810R); assay: RET G810R Mutant Cell Assay (phospho-RET Tyr1062); type: cell-based; conditions: 1 hour with compound, phospho-RET(Tyr1062) normalized to GAPDH
T2 construct: expressed in transfected cells; host or cells: HEK-293; the other entry of the earlier key: KIF5B (P33176, Kinesin-1 heavy chain)
T2 sequence (P07949 713-1063 G810R limits assumed): T1 sequence (P07949 713-1063 limits assumed) with G98R
Experimental: RET G810R and G810S Mutant Cell Assay
as §1, with “expressing a G810R or G810S mutant RET Kif5b-RET fusion” for “expressing a Kif5b-RET fusion”, “μL PBS was added to” for “μL PBS is added to”, “POC values are fit to” for “POC values were fit to”

RET kinase G810S = RET kinase G810S (Homo sapiens, UniProt P07949, G810S); assay: RET Enzyme Assay (HTRF KinEASE-TK), G810S; type: biochemical
Chain of RET kinase G810S (P07949 29-1114 G810S): as the sequence (P07949 29-1114 V804M) above, with M776V, G782S counted along it

RET kinase Wild Type = RET kinase Wild Type (Homo sapiens, UniProt P07949); assay: RET Enzyme Assay (HTRF KinEASE-TK), Wild Type; type: biochemical
Chain of RET kinase Wild Type (P07949 29-1114): as the sequence (P07949 29-1114 V804M) above, with M776V counted along it

RET kinase G810R = RET kinase G810R (Homo sapiens, UniProt P07949, G810R); assay: RET Enzyme Assay (HTRF KinEASE-TK), G810R; type: biochemical
Chain of RET kinase G810R (P07949 29-1114 G810R): as the sequence (P07949 29-1114 V804M) above, with M776V, G782R counted along it

Chain of RET kinase M918T (P07949 29-1114 M918T): as the sequence (P07949 29-1114 V804M) above, with M776V, M890T counted along it

Compound | IC50 (RET kinase M918T) [µM] | IC50 [1] [µM] | IC50 (RET kinase V804M) [µM] | IC50 [2] [µM] | IC50 (RET kinase G810S) [µM] | IC50 (RET kinase Wild Type) [µM] | IC50 (RET kinase G810R) [µM]
CC(C)n1nc(-c2cc(C3CC3)nn2C2CCCCO2)c2c(N)ncnc21 (stereo not shown) [Example 19, 3-(3-cyclopropyl-1-(tetrahydro-2H-pyran-2-yl)-1H-pyrazol-5-yl)-1-isopropyl-1H-pyrazolo[3,4-d]pyrimidin-4-amine] | 0.0061 | 0.04 | 0.418 | 0.628 | 0.0241 | 0.0039 | 0.0289
Cc1cc(-c2nn(C(C)C)c3ncnc(N)c23)n(C2CCCCO2)n1 (stereo not shown) [Example 21, 1-isopropyl-3-(3-methyl-1-(tetrahydro-2H-pyran-2-yl)-1H-pyrazol-5-yl)-1H-pyrazolo[3,4-d]pyrimidin-4-amine] | 0.0041 | 0.036 | 0.26 | 0.342 | 0.0179 | 0.0021 | 0.0195
C=Cc1cc(-c2nn(C(C)C)c3ncnc(N)c23)n(C2CCCCO2)n1 (stereo not shown) [Example 22, 1-isopropyl-3-(1-(tetrahydro-2H-pyran-2-yl)-3-vinyl-1H-pyrazol-5-yl)-1H-pyrazolo[3,4-d]pyrimidin-4-amine] | 0.003 | 0.021 | 0.307 | 0.214 | 0.013 | 0.0023 | 0.0165
CC(C)n1nc(-c2ccnn2C2CCCCO2)c2c(N)ncnc21 (stereo not shown) [Example 23, 1-isopropyl-3-(1-(tetrahydro-2H-pyran-2-yl)-1H-pyrazol-5-yl)-1H-pyrazolo[3,4-d]pyrimidin-4-amine] | 0.0085 | 0.344 | 0.0274 | 10 | 0.046 | 0.0041 | 0.0158
